# Measured values from article PMC10902181 (Journal of neurochemistry, 2023).
# Read-outs that look alike come from different tables or passages of the source.
# Assays:
# Assay in all cases: TEVC current recordings from Xenopus oocytes, channel blocker inhibition
# Assay type in all cases: cell-based
# [1] = target: WT GluN1/GluN2A (Homo sapiens, UniProt Q05586+Q12879); settings: for IC50: IC50, WT GluN1/WT 2A, holding −40 mV; for % inhibition: WT GluN1/WT 2A, 300 μM blocker, −40 mV
# [2] = target: GluN1-G620R/GluN2A (Homo sapiens, UniProt Q05586+Q12879, G620R); settings: for % inhibition: 1-G620R/2A, 300 μM blocker, −40 mV; for IC50: IC50, 1-G620R/2A, holding −40 mV
# [3] = target: GluN1/GluN2A-L611Q (Homo sapiens, UniProt Q05586+Q12879, L611Q); settings: for % inhibition: 2A-L611Q, 300 μM blocker, −40 mV; for IC50: IC50, 2A-L611Q, holding −40 mV
# [4] = target: GluN2A-N614S-containing NMDARs (Homo sapiens, UniProt Q05586+Q12879, N614S); settings: for % inhibition: 2A-N614S, 300 μM blocker, −40 mV; for IC50: IC50, 2A-N614S, holding −40 mV
# [5] = target: GluN2A-N615K-containing NMDARs (Homo sapiens, UniProt Q05586+Q12879, N615K); settings: for % inhibition: 2A-N615K, 300 μM blocker, −40 mV; for IC50: IC50, 2A-N615K, holding −40 mV
# [6] = target: WT GluN1/GluN2B (Homo sapiens, UniProt Q05586+Q13224); settings: for IC50: IC50, WT GluN1/WT 2B, holding −40 mV; for % inhibition: WT GluN1/WT 2B, 300 μM blocker, −40 mV
# [7] = target: GluN2B-W607C-containing NMDARs (Homo sapiens, UniProt Q05586+Q13224, W607C); settings: for % inhibition: 2B-W607C, 300 μM blocker, −40 mV; for IC50: IC50, 2B-W607C, holding −40 mV
# [8] = target: GluN2B-G611V-containing NMDARs (Homo sapiens, UniProt Q05586+Q13224, G611V); settings: for % inhibition: 2B-G611V, 300 μM blocker, −40 mV; for IC50: IC50, 2B-G611V, holding −40 mV
# [9] = target: GluN1/GluN2B-N615I (Homo sapiens, UniProt Q05586+Q13224, N615I); settings: for % inhibition: 2B-N615I, 300 μM blocker, −40 mV; for IC50: IC50, 2B-N615I, holding −40 mV
# [10] = target: GluN1/GluN2B-N615K (Homo sapiens, UniProt Q05586+Q13224, N615K); settings: for % inhibition: 300 μM blocker, −40 mV
# [11] = target: GluN2B-N616K-containing NMDARs (Homo sapiens, UniProt Q05586+Q13224, N616K); settings: for % inhibition: 2B-N616K, 300 μM blocker, −40 mV; for IC50: IC50, 2B-N616K, holding −40 mV
# [12] = target: GluN2B-V618G-containing NMDARs (Homo sapiens, UniProt Q05586+Q13224, V618G); settings: for % inhibition: 2B-V618G, 300 μM blocker, −40 mV; for IC50: IC50, 2B-V618G, holding −40 mV
# [13] = target: GluN2B-V620M-containing NMDARs (Homo sapiens, UniProt Q05586+Q13224, V620M); settings: for % inhibition: 2B-V620M, 300 μM blocker, −40 mV; for IC50: IC50, 2B-V620M, holding −40 mV
smiles,measurement,setting,value
COc1ccc2c(c1)[C@]13CCCC[C@@H]1[C@H](C2)N(C)CC3 [dextromethorphan],IC50,[1]; w/ 1 mM Mg^2+,25 µM
same,IC50,[1]; w/o Mg^2+,11 µM
same,% inhibition,[1]; w/ 1 mM Mg^2+,88 ± 3.3% (10)
same,% inhibition,[1]; w/o Mg^2+,95 ± 1.6% (19)
same,% inhibition,[2]; w/ 1 mM Mg^2+,96 ± 1.5% (8)^¥
same,% inhibition,[2]; w/o Mg^2+,97 ± 1.4% (14)
same,enhanced potency in comparison to WT NMDARs,"[2]; GluN1-G620R, absence of Mg^2+",2.5 fold
same,enhanced potency compared to the WT receptors,"[2]; GluN1-G620R, presence of 1 mM Mg^2+",5.7 fold
same,IC50,[2]; w/ 1 mM Mg^2+,4.4 µM
same,IC50,[2]; w/o Mg^2+,4.4 µM
same,% inhibition,[3]; w/ 1 mM Mg^2+,89 ± 2.3% (8)
same,% inhibition,[3]; w/o Mg^2+,91 ± 1.4% (16)
same,IC50,[3]; w/ 1 mM Mg^2+,36 µM
same,IC50,[3]; w/o Mg^2+,27 µM
same,% inhibition,[4]; w/ 1 mM Mg^2+,85 ± 2.7% (11)
same,% inhibition,[4]; w/o Mg^2+,85 ± 3.0% (10)^¥
same,IC50,[4]; w/ 1 mM Mg^2+,32 µM
same,IC50,[4]; w/o Mg^2+,22 µM
same,% inhibition,[5]; w/ 1 mM Mg^2+,97 ± 0.9% (12)^¥
same,% inhibition,[5]; w/o Mg^2+,98 ± 1.4% (8)
same,enhanced potency in comparison to WT NMDARs,"[5]; GluN2A-N615K, absence of Mg^2+",2.7 fold
same,enhanced potency compared to the WT receptors,"[5]; GluN2A-N615K, presence of 1 mM Mg^2+",8.3 fold
same,IC50,[5]; w/ 1 mM Mg^2+,3 µM
same,IC50,[5]; w/o Mg^2+,3.8 µM
same,IC50,[6]; w/ 1 mM Mg^2+,22 µM
same,IC50,[6]; w/o Mg^2+,4.8 µM
same,% inhibition,[6]; w/ 1 mM Mg^2+,90 ± 1.9% (18)
same,% inhibition,[6]; w/o Mg^2+,95 ± 1.2% (15)
same,% inhibition,[7]; w/ 1 mM Mg^2+,95 ± 1.4% (12)
same,% inhibition,[7]; w/o Mg^2+,90 ± 2.8% (11)
same,reduced potency in 1 mM Mg^2+ vs absence of Mg^2+,[7]; GluN2B-W607C,3 fold
same,IC50,[7]; w/ 1 mM Mg^2+,11 µM
same,IC50,[7]; w/o Mg^2+,3.7 µM
same,% inhibition,[8]; w/ 1 mM Mg^2+,97 ± 1.0% (10)
same,% inhibition,[8]; w/o Mg^2+,94 ± 2.3% (10)
same,enhanced potency compared to the WT receptors,"[8]; GluN2B-G611V, presence of 1 mM Mg^2+",3.5 fold
same,IC50,[8]; w/ 1 mM Mg^2+,6.2 µM
same,IC50,[8]; w/o Mg^2+,3.6 µM
same,% inhibition,[9]; w/ 1 mM Mg^2+,94 ± 1.5% (11)
same,% inhibition,[9]; w/o Mg^2+,95 ± 1.4% (14)
same,IC50,[9]; w/ 1 mM Mg^2+,17 µM
same,IC50,[9]; w/o Mg^2+,15 µM
same,IC50,[10],> 300 µM
same,% inhibition,"[10]; 2B-N615K, w/ 1 mM Mg^2+",33 ± 3.7% (18) ^*^¥
same,% inhibition,"[10]; 2B-N615K, w/o Mg^2+",14 ± 2.7% (8)^¥
same,IC50,"[10]; 2B-N615K, w/ 1 mM Mg^2+, holding −40 mV",> 300 µM
same,% inhibition,[11]; w/ 1 mM Mg^2+,93 ± 1.6% (7)
same,% inhibition,[11]; w/o Mg^2+,94 ± 1.7% (10)
same,enhanced potency compared to the WT receptors,"[11]; GluN2B-N616K, presence of 1 mM Mg^2+",4.9 fold
same,IC50,[11]; w/ 1 mM Mg^2+,4.5 µM
same,IC50,[11]; w/o Mg^2+,3.2 µM
same,% inhibition,[12]; w/ 1 mM Mg^2+,83 ± 4.0% (10)
same,% inhibition,[12]; w/o Mg^2+,85 ± 1.7% (11)^¥
same,reduced potency compared to the WT receptors,"[12]; GluN2B-V618G, presence of 1 mM Mg^2+",3.2 fold
same,IC50,[12]; w/ 1 mM Mg^2+,71 µM
same,IC50,[12]; w/o Mg^2+,45 µM
same,% inhibition,[13]; w/ 1 mM Mg^2+,87 ± 3.2% (8)
same,% inhibition,[13]; w/o Mg^2+,93 ± 3.2% (8)
same,enhanced potency in comparison to WT NMDARs,"[13]; GluN2B-V620M, absence of Mg^2+",2.7 fold
same,enhanced potency compared to the WT receptors,"[13]; GluN2B-V620M, presence of 1 mM Mg^2+",6.3 fold
same,IC50,[13]; w/ 1 mM Mg^2+,3.5 µM
same,IC50,[13]; w/o Mg^2+,1.8 µM
